The values below come from patent US5620676A, “Biologically active ATP analogs” (priority 1995, dated 1997).

Entries after “also recorded” stand apart in the source; their conditions may differ.

The test system of the assay is P2Y receptors. In words: Overall activity in P2Y receptor systems. Here is the method: Phospholipase C activity: Stimulation of inositol phosphate formation by compounds of the present invention was measured in turkey erythrocyte membranes as described by Harden et al., supra and Boyer et al., supra. The K0.5 values were averaged from 3-8 independently determined dose-response curves for each compound. Briefly, one ml of washed turkey erythrocytes was incubated in inositol-free medium (DMEM; Gibco) with 0.5-1 mCi of 2-[^3 H]myoinositol (20 Ci/mmol; American Radiolabeled Chemicals Inc., St. Louis, Mo.)for 18-24 h in a humidified atmosphere of 95% air 5% CO2 at 37° C. Erythrocyte ghosts were prepared by rapid lysis in hypotonic buffer (5 mM sodium phosphate, pH 7.4, 5 mM MgCl2, 1 mM EGTA) as described by Boyer et al., supra. Phospholipase C activity was measured in 25 μl of [^3 H]inositol-labeled ghosts (≈175 μg of protein, 200-500,000 cpm/assay) in a medium containing 424 μM CaC12, 0.91 mM MgSO4, 2 mM EGTA, 115 mM KCl, 5 mM KH2 PO4, and 10 mM Hepes, pH 7.0. Assay (100 μl or 200 μl final volume) contained 1 μM GTPγS and the indicated concentrations of nucleotide analogs. Ghosts were incubated at 30° C. for 5 min, and total [^3 H]inositol phosphates were quantitated after purification by anion exchange chromatography according to Harden et al. (supra) and Boyer et al. (supra).
Muscular relaxation/contraction: Relaxant responses mediated via P2Y receptors were examined in guinea pig taenia coli, rabbit aorta, and rabbit mesenteric artery, as described by Hoyle et al. (Br. J. Pharmacol., 107, 367-374 (1992a)), Burnstock et al., (Br. J. Pharmacol., 90, 383-391 (1987a)), and Rubino et al., (Eur. J. Pharmacol., 212, 237-240 (1992)). Contractile responses mediated via P2X receptors were examined in the guinea pig urinary bladder and vas deferens, and rabbit saphenous artery, also using standard methods (see Hoyle et al., supra., 1992; Hoyle et al., Br. J. Pharmacol., 99, 617-621 (1990); and Burnstock et al., Br. J. Pharmacol., 90, 111-120 (1987b)).

As to `N#CCCCCCCSc1nc(N)c2ncn([C@@H]3O[C@H](COP(=O)(O)OP(=O)(O)OP(=O)(O)O)[C@@H](O)[C@H]3O)c2n1` [2-(6-Cyanohexylthio)-ATP, 2-(6-Cyanohexylthio)adenosine-5'-triphosphate], the “overall activity in words, P2Y systems” value is “by far the most potent agonist in several P2Y receptor preparations” (listed as 2-(6-cyanohexyl)thio ATP) and “the most potent compound in all of the P2Y receptor assays; also recorded: nanomolar potency” (listed as 2-(6-cyanohexylthio)-ATP).
